In BindingDB's records for doi:10.1021/ml200284s (2012):

test: Inhibition of dynamin1-mediated endocytosis in human U2OS cells assessed as inhibition of Texas red-Tf uptake incubated for 30 mins prior to Texas red-Tf addition measured after 8 mins by receptor-mediated endocytosis assay

**Q.** Which IC50 does the source give for `O=C1N=C(S)SC1=Cc1cc(Cl)cc(Cl)c1` here?
**A.** 18.1 µM

**Q.** For `C=CCN1C(=O)/C(=C/c2ccc(OCCCN(C)C)cc2)SC1=S`, which IC50 is on record?
**A.** 5.9 µM

**Q.** Which IC50 does the source give for `O=C(O)CN1C(=O)/C(=C/c2csc3ccc(Cl)cc23)SC1=S` here?
**A.** > 100 µM
